Several values for one entry are separate records, joined by “and”; a condition that tells them apart may be missing. Equal entries are not always repeated. Where two headings read alike, the source gives them in different places.
Legend:
[1] = Log P measurement, octanol–water system; format: physicochemical
Description: There are only calculated log P values available for CBD, CBG, CBC and CBN (range 6.1–7.4). Therefore, log P was measured experimentally for all four cannabinoids during this study. The partition coefficient describes the distribution of a tested compound in a two-phase octanol–water system. It is defined as a ratio of concentrations of the un-ionized compound in octanol and water at equilibrium. Cannabinoids were weighed (2 mg) and dissolved in 2.5 mL of octanol, followed by the addition of 2.5 mL of deionized water. The mixture was shaken for 2 h and then allowed to separate for 24 h. Twenty μL of the aqueous (bottom) phase was transferred into an LC vial, diluted with 60 μL of an appropriate IS at a concentration of 30 ng/mL, and analyzed using the aforementioned UHPLC-MS/MS method. The experiment was repeated five times for each cannabinoid.
Due to the highly lipophilic character of cannabinoids, their concentration in the organic phase is several orders of magnitude higher than the concentration in the aqueous phase. As a result, the difference in the total amount of cannabinoids and the amount present in the organic phase is very small and falls within the experimental error of the analytical method. Therefore, log P values were calculated based on the measured cannabinoid concentration in the aqueous phase, while the concentration in the octanol phase was calculated from the initial amount of the cannabinoid used and its measured concentration in the aqueous phase. […] Due to the very low concentrations of CBD and CBC in the aqueous phase, which fell below the LOQ of both methods, we were unable to determine the log P for these two cannabinoids.

[2] = man, cited from earlier work
[3] = Pharmacokinetic studies (oral and intravenous dosing) in jugular vein cannulated rats; conditions: for AUC(0-inf): AUC0-inf; for bioavailability: F0-inf (absolute oral bioavailability)
Description: Absolute oral bioavailability and other pharmacokinetic parameters were determined in a series of two-period, crossover studies, where the cannabinoids were administered intravenously in the first period, and orally in the second. Both jugular veins were cannulated (3 Fr polyurethane catheter, Instech Laboratories, Plymouth Meeting, USA). One catheter was used for intravenous dosing, and the second one was used for repetitive blood sampling in order to avoid sampling cannula contamination with highly concentrated intravenous drug solution. The anesthesia was performed using a rapid inhalational induction with isoflurane (IsoFlo, Zoetis, Czech Republic) followed by intramuscular injection of ketamine 100 mg/kg (Narkamon, Bioveta a.s., Czech Republic) and xylazine 5 mg/kg (Rometar, Bioveta a.s., Czech Republic). After a three-day recovery period, the rats were intravenously dosed with the particular cannabinoid (1 mg of CBD, 1.5 mg of the other three cannabinoids in the form of nanoemulsion, volume 100 μL). Systemic blood (100 μL) was drawn at 5, 15, and 30 min and at 1, 2, 4, 6, 8, 10, and 24 h(s) postdose. After a two-day wash-out period, the dosing via oral gavage followed (10 mg of CBD, 15 mg of the other three cannabinoids in the form of nanoemulsion, volume 1 mL). Systemic blood (100 μL) was drawn at 0 (predose), 0.5, 1, 2, 3, 4, 5, 6, 8, 10, and 24 h(s). Blood samples were centrifuged (4500 rpm for 10 min) and serum was extracted and stored in −80 °C until analysis. The laboratory was unaware of animal assignment to particular experimental groups (laboratory blinding).
Serum and lymph concentrations in all studies were dose-normalized to 1 mg/kg prior to further calculations. AUC values were determined using linear trapezoidal rule. Exact actual sampling times were used for this purpose. Scheduled sampling times were used for mean concentration plotting in the graphs. PK-solver add-on for MS Excel was used for all basic pharmacokinetic calculations. GraphPad Prism version 10.2.2 (GraphPad Software, San Diego, CA, USA) was used for all statistical analyses and graph plotting. Unpaired Student’s t test was used to compare pharmacokinetic and lymphatic transport parameters between the experimental groups. Level of significance was set to p < 0.05.
Lymphatic transport parameters were defined and calculated as previously described. , Briefly, absolute bioavailability via lymph (FAL) was defined as percentage of administered drug dose absorbed into the lymph. It was determined directly from lymph volume and drug concentration in lymph duct cannulated rats. Absolute bioavailability via portal vein (FAP) was analogically defined as percentage of administered drug dose reaching the systemic circulation after direct absorption into blood. It was calculated using equation 1 FAP=AUCent/AUCiv where AUCent is the area under the dose-normalized blood concentration–time curve after enteral dosing in lymph duct cannulated (i.e., lymph deprived) rats and AUCiv is the respective parameter in a separate intravenously dosed group. Total absolute bioavailability (F) in lymph duct cannulated rats was calculated as a sum of FAL and FAP. In normal animals with no lymph duct cannulation, F was calculated using standard formula for oral bioavailability: 2 F=AUCpo/AUCiv Relative bioavailability via lymph (FRL) was defined as the percentage of systemically available drug that was absorbed via lymph. It was calculated using the equation 3 FRL=FAL/F

[4] = design: method as in published earlier (Table 1 footnote a); conditions: nanoemulsion, IV, rats, 1 mg CBD, mean ± SD, ref published earlier (Table 1 footnote a), cited from earlier work
[5] = cited from earlier work; for absolute oral bioavailability: species not printed at place, ref reports published so far
[6] = dogs, oral; cited from earlier work
[7] = octanol–water, from measured aqueous phase concentration, lower bounds based on LOQ, n = 5, read-out: Log P
[8] = rat, in vivo, iv, 1.5 mg, nanoemulsion, rats, serum, dose-normalized to 1 mg/kg, mean ± SD
[9] = rat, in vivo, iv, 1.5 mg, T1/2, nanoemulsion, rats, mean ± SD
[10] = rat, in vivo, po, nanoemulsion, rats, serum, dose-normalized to 1 mg/kg, mean ± SD
[11] = rat, in vivo, po, oil solution, rats, serum, dose-normalized to 1 mg/kg, mean ± SD
[12] = rat, in vivo, po, nanoemulsion, rats, 10 mg CBD, 15 mg others, serum, dose-normalized to 1 mg/kg, mean ± SD
[13] = rat, in vivo, po, oil solution, rats, 10 mg CBD, 15 mg other cannabinoids, serum, dose-normalized to 1 mg/kg, mean ± SD
[14] = rat, in vivo, po, nanoemulsion, rats, mean ± SD
[15] = rat, in vivo, po, oil solution, rats, mean ± SD
[16] = rat, in vivo, po, T1/2, nanoemulsion, rats, mean ± SD
[17] = rat, in vivo, po, T1/2, oil solution, rats, mean ± SD

Compound	logP [1, 7]	Vd ([3]; rat, in vivo, iv, 1.5 mg) [L/kg]	clearance ([3]; rat, in vivo, iv, 1.5 mg) [mL/min/kg]	AUC(0-inf) [3, 8] [ng·h/mL]	Cmax [3, 8] [ng/mL]	half-life [3, 9] [h]	AUC(0-inf) [3, 10] [ng·h/mL]	AUC(0-inf) [3, 11] [ng·h/mL]	Cmax [3, 12] [ng/mL]	Cmax [3, 13] [ng/mL]	bioavailability [3, 14] [%]	bioavailability [3, 15] [%]	half-life [3, 16] [h]	half-life [3, 17] [h]	Tmax [3, 14] [h]	Tmax [3, 15] [h]	also measured
CCCCCc1cc(O)c2c(c1)OC(C)(CCC=C(C)C)C=C2 (centres unmarked) [CBC, cannabichromene]	> 6.7	11 ± 2.2	100	640 ± 85	935 ± 147	2.2 ± 0.4	117 ± 33	31 ± 23	12 ± 2	2.6 ± 1.5	18 ± 5	34 ± 18	5.8 ± 1.9	13 ± 19	3.6 ± 1.9	6 ± 1.3	Tmax ([2]; oral administration): 2 to 4 h
C=C(C)[C@@H]1CCC(C)=C[C@H]1c1c(O)cc(CCCCC)cc1O [CBD, cannabidiol]	> 6.3						256 ± 38	205 ± 57		27 ± 10	45 ± 18	52 ± 19	4.4 ± 0.8	4.8 ± 0.8	3.2 ± 0.9	6.8 ± 1.9	oral bioavailability ([2]; estimated): < 10%; bioavailability increase when taken with food ([2]; oral): up to 4 fold; AUC(0-inf) ([4]; dose-normalized to 1 mg/kg): 623 ± 141 ng·h/mL; T1/2 [4]: 2.5 ± 0.5 h; Vss [4]: 2.9 ± 1.1 L/kg; Cmax ([4]; serum, dose-normalized to 1 mg/kg): 845 ± 253 ng/mL; oral bioavailability ([5]; rats, lipid-free formulation): 8.5% and 8%; oral bioavailability ([5]; rats, long-chain triglycerides-based formulation): 22%; absolute oral bioavailability ([5]; sunflower oil-based microemulsion): 25%; absolute oral bioavailability ([5]; sunflower oil): 14%
CCCCCc1cc(O)c(C/C=C(\C)CCC=C(C)C)c(O)c1 [CBG, cannabigerol]		7.3 ± 2.3	98.3														logP [1]: 7.2; average Tmax [6]: 0.75 h; AUC(0-inf) ([3]; rat, in vivo, iv, 1.5 mg): 716 ± 136 ng·h/mL; Cmax ([3]; rat, in vivo, iv, 1.5 mg): 1190 ± 286 ng/mL; half-life ([3]; rat, in vivo, iv, 1.5 mg, T1/2): 2.5 ± 1.6 h; T1/2 ([3]; rat, in vivo, po): 5.1 ± 4.1 h; half-life ([3]; rat, in vivo, po, T1/2): 3.1 ± 1.3 h
CCCCCc1cc(O)c2c(c1)OC(C)(C)c1ccc(C)cc1-2 [CBN, cannabinol]	6.2	6.5 ± 1.6	50	1040 ± 212	1230 ± 252	5	91 ± 19	148 ± 57	12 ± 3	15.3 ± 4.6	9	20 ± 7	3.5 ± 1.1	4.2 ± 1.7	2.2 ± 0.6	6.5 ± 1.2	Tmax ([5]; rats, oral administration): 1.5 to 3 h; T1/2 ([3]; nanoemulsion, IV, rats, 1.5 mg, mean ± SD): 5.3 ± 1.8 h; F0-inf (absolute oral bioavailability) ([3]; nanoemulsion, PO, rats, mean ± SD): 9.2 ± 2.6%
